The record followed here is publication doi:10.1101/2025.06.02.657523v1 (biorxiv, 2025).

This test has as its target RSK4 (Homo sapiens, UniProt Q9UK32). Put plainly: Kinase-Glo Plus luminescence kinase assay. The conditions noted are these: […] ATP, […] MgCl2, pH […] °C, […] min, […] DMSO. Type of test: biochemical. (In general: Kinase-Glo measures the ATP left after a reaction by luminescence.)

The IC50 is the midpoint of a concentration-inhibition curve.

RSK4, sequence (Q9UK32 whole entry): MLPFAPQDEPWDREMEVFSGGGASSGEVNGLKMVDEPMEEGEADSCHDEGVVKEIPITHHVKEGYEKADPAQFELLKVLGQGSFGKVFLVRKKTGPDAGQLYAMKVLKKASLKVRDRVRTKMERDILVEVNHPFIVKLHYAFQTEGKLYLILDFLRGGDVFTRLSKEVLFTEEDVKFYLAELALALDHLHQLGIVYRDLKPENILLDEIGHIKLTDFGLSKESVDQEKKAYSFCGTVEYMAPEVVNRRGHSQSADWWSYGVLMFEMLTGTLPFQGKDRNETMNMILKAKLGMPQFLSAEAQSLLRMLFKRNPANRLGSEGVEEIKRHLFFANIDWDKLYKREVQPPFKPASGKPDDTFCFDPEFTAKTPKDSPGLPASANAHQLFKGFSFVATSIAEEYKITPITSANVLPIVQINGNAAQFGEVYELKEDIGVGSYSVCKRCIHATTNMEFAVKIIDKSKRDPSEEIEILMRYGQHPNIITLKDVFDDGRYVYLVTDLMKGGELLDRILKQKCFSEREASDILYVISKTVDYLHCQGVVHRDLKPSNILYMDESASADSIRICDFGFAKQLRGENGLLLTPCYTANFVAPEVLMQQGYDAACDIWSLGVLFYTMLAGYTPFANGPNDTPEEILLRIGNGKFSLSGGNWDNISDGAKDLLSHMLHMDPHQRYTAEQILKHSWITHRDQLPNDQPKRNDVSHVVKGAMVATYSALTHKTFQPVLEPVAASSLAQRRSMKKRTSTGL

Consider `Cc1cc(=O)n(C2CCCCC2)c2nc(Nc3ccc4[nH]ccc4c3)ncc12` [R635, 2-((1H-indol-5-yl)amino)-8-cyclohexyl-5-methylpyrido[2,3-d]pyrimidin-7(8H)-one], for which the half-maximal inhibitory concentration (IC50) worked out at 0.0459 ± 0.00311 µM. Then `Cc1cc(=O)n(C2CCC(F)(F)C2)c2nc(Nc3ccc4c(c3)CC(=O)N4)ncc12` (centres unmarked) [R634], with 0.0863 ± 0.0407 µM.
